Experimental data published in ChEMBL document CHEMBL1146154, “Inhibitors of Plasmepsin II-potential antimalarial agents” (Bioorg Med Chem Lett, 2006).

Key:
Plasmodium falciparum = assay: Antimalarial activity against Plasmodium falciparum infected human RBC; type: functional, organism-based
Plasmepsin II = Plasmepsin II (Plasmodium falciparum, UniProt P46925); assay: Inhibition of PM2 by FRET assay
Sequence of Plasmepsin II (P46925 whole entry): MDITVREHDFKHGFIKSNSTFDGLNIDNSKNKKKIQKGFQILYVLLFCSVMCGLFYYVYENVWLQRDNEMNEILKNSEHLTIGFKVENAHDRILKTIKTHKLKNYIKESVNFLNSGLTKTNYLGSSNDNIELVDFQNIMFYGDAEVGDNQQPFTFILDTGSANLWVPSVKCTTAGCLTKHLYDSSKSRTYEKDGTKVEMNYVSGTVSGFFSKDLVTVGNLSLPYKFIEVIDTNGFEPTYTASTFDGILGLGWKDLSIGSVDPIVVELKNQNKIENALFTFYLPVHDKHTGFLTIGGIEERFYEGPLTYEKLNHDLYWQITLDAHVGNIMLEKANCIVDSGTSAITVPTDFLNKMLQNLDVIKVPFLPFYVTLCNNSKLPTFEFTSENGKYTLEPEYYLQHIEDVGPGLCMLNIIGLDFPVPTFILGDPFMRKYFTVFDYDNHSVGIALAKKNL

IC50 (Plasmodium falciparum) [nM] | IC50 (Plasmepsin II) [nM] | SMILES
859 | 77 | CCCCCc1ccc(C(=O)N(CCN(CCCC)CCCC)Cc2ccc(-c3ccc(C(=O)N(C)C)cc3)cc2)cc1
630 | 4550 | CCCCCc1ccc(C(=O)N(CCN(CCCC)CCCC)Cc2ccc(-c3ccncc3)cn2)cc1
7150 | 463 | CCCCCc1ccc(C(=O)N(CCN(CCCC)CCCC)Cc2ccc(-c3ccc(CC(=O)O)cc3)cc2)cc1
550 | 1490 | CCCCCc1ccc(C(=O)N(CCN(CCCC)CCCC)Cc2ccc(N(CC)CC)cc2)cc1
1200 | 101 | CCCCCc1ccc(C(=O)N(CCN(CCCC)CCCC)Cc2ccc(-c3ccc4c(c3)OCO4)cc2)cc1
– | 190 | CCCCCc1ccc(C(=O)N(CCN2CCC(Cc3ccccc3)CC2)Cc2ccc(-c3ccc4c(c3)OCO4)cc2)cc1
3660 | 511 | CCCCCc1ccc(C(=O)N(CCN(CCCC)CCCC)Cc2ccc(-c3ccc(OCCO)cc3)cc2)cc1
623 | 154 | CCCCCc1ccc(C(=O)N(CCN(CCCC)CCCC)Cc2ccc(NC(=O)c3ccnc(OC)c3)cc2)cc1
458 | 587 | CCCCCc1ccc(C(=O)N(CCN(CCCC)CCCC)Cc2ccc(-c3cccnc3)nc2)cc1
– | 439 | CCCCCc1ccc(C(=O)N(CCN(CC)CCN(CC)CC)Cc2ccc(-c3ccc4c(c3)OCO4)cc2)cc1
686 | 429 | CCCCCc1ccc(C(=O)N(CCN(CCCC)CCCC)Cc2ccc(NCc3ccccc3)cc2)cc1
1280 | 200 | CCCCCc1ccc(C(=O)N(CCN(CCCC)CCCC)Cc2ccc(N3CCN(c4ccccc4)CC3)cc2)cc1
– | 531 | CCCCCc1ccc(C(=O)N(CCN(CCC)CCC)Cc2ccc(-c3ccc4c(c3)OCO4)cc2)cc1
566 | 72 | CCCCCc1ccc(C(=O)N(CCN(CCCC)CCCC)Cc2ccc(-c3ccc(C(=O)NCc4ccccc4)cc3)cc2)cc1
– | 2900 | CCCCCc1ccc(C(=O)N(CCN2CCOCC2)Cc2ccc(-c3ccc4c(c3)OCO4)cc2)cc1
550 | 464 | CCCCCc1ccc(C(=O)N(CCN(CCCC)CCCC)Cc2ccc(NC(=O)C3CCNCC3)cc2)cc1
376 | 202 | CCCCCc1ccc(C(=O)N(CCN(CCCC)CCCC)Cc2ccc(NC(=O)C3CCCNC3)cc2)cc1 (centres undefined)
677 | 437 | CCCCCc1ccc(C(=O)N(CCN(CCCC)CCCC)Cc2ccc(-c3ccc4c(c3)OCO4)nc2)cc1
– | 1520 | CCCCCc1ccc(C(=O)N(CCN(CC)CC)Cc2ccc(-c3ccc4c(c3)OCO4)cc2)cc1
431 | 2550 | CCCCCc1ccc(C(=O)N(CCN(CCCC)CCCC)Cc2ccc(N3CCN(C)CC3)cc2)cc1
2470 | 183 | CCCCCc1ccc(C(=O)N(CCN(CCCC)CCCC)Cc2ccc(-c3ccc(CC(=O)OC)cc3)cc2)cc1
560 | 2230 | CCCCCc1ccc(C(=O)N(CCN(CCCC)CCCC)Cc2ccc(-c3cncnc3)nc2)cc1
2440 | 143 | CCCCCc1ccc(C(=O)N(CCN(CCCC)CCCC)Cc2ccc(-c3ccccc3)cc2)cc1
605 | 243 | CCCCCc1ccc(C(=O)N(CCN(CCCC)CCCC)Cc2ccc(NC(=O)c3cnccn3)cc2)cc1
– | 165 | CCCCCc1ccc(C(=O)N(CCN2CCC(CCCc3ccccc3)CC2)Cc2ccc(-c3ccc4c(c3)OCO4)cc2)cc1
885 | 74 | CCCCCc1ccc(C(=O)N(CCN(CCCC)CCCC)Cc2ccc(-c3ccc(CC(=O)N4CCOCC4)cc3)cc2)cc1
639 | 8530 | CCCCCc1ccc(C(=O)N(CCN(CCCC)CCCC)Cc2ccc(-c3cncnc3)cn2)cc1
609 | 589 | CCCCCc1ccc(C(=O)N(CCN(CCCC)CCCC)Cc2ccc(-c3ccccc3)nc2)cc1

IC50 (Plasmodium falciparum) [nM] | IC50 (Plasmepsin II) [nM] | SMILES
273 | 374 | CCCCCc1ccc(C(=O)N(CCN(CCCC)CCCC)Cc2ccc(-c3cccnc3)cc2)cc1
609 | 289 | CCCCCc1ccc(C(=O)N(CCN(CCCC)CCCC)Cc2ccc(N(C)Cc3ccccc3)cc2)cc1
628 | 369 | CCCCCc1ccc(C(=O)N(CCN(CCCC)CCCC)Cc2ccc(N3CCCCC3)cc2)cc1
693 | 2350 | CCCCCc1ccc(C(=O)N(CCN(CCCC)CCCC)Cc2ccc(-c3ccccc3)cn2)cc1
583 | 212 | CCCCCc1ccc(C(=O)N(CCN(CCCC)CCCC)Cc2ccc(-c3ccncc3)cc2)cc1
617 | 574 | CCCCCc1ccc(C(=O)N(CCN(CCCC)CCCC)Cc2ccc(N(C)c3ccccc3)cc2)cc1
825 | 240 | CCCCCc1ccc(C(=O)N(CCN(CCCC)CCCC)Cc2ccc(-n3cccc3)cc2)cc1
751 | 56 | CCCCCc1ccc(C(=O)N(CCN(CCCC)CCCC)Cc2ccc(-c3ccc(C(=O)N4CCSCC4)cc3)cc2)cc1
790 | 646 | CCCCCc1ccc(C(=O)N(CCN(CCCC)CCCC)Cc2ccc(N3CCN(Cc4ccccc4)CC3)cc2)cc1
465 | 5270 | CCCCCc1ccc(C(=O)N(CCN(CCCC)CCCC)Cc2ccc(-c3cccnc3)cn2)cc1
207 | 1820 | CCCCCc1ccc(C(=O)N(CCN(CCCC)CCCC)Cc2ccc(Nc3ccncc3)cc2)cc1
725 | 91 | CCCCCc1ccc(C(=O)N(CCN(CCCC)CCCC)Cc2ccc(-c3ccc(CC(=O)N(C)Cc4ccccc4)cc3)cc2)cc1
698 | 1910 | CCCCCc1ccc(C(=O)N(CCN(CCCC)CCCC)Cc2ccc(-c3ccc4c(c3)OCO4)cn2)cc1
411 | 736 | CCCCCc1ccc(C(=O)N(CCN(CCCC)CCCC)Cc2ccc(-c3ccccn3)nc2)cc1
1.8 | 6 | CCCCCc1ccc(C(=O)N(Cc2ccc(-c3ccc(CC(=O)OC)cc3)cc2)C2CCN(CCC(C)C)CC2)cc1
– | 334 | CCCCCc1ccc(C(=O)N(CCN(CCO)Cc2ccccc2)Cc2ccc(-c3ccc4c(c3)OCO4)cc2)cc1
453 | 3010 | CCCCCc1ccc(C(=O)N(CCN(CCCC)CCCC)Cc2ccc(N(C)c3ccncc3)cc2)cc1
– | 1500 | CCCCCc1ccc(C(=O)N(CCN(C(C)C)C(C)C)Cc2ccc(-c3ccc4c(c3)OCO4)cc2)cc1
– | 1700 | CCCCCc1ccc(C(=O)N(CCCc2ccccc2)C2CCN(Cc3ccccc3)CC2)cc1
– | 334 | CCCCCc1ccc(C(=O)N(CCN2CCCCC2)Cc2ccc(-c3ccc4c(c3)OCO4)cc2)cc1
457 | 642 | CCCCCc1ccc(C(=O)N(CCN(CCCC)CCCC)Cc2ccc(-c3ccncc3)nc2)cc1
1730 | – | CCCCCc1ccc(C(=O)N(CCN(CCCC)CCCC)Cc2ccc(-c3ccccn3)cc2)cc1
539 | 224 | CCCCCc1ccc(C(=O)N(CCN(CCCC)CCCC)Cc2ccc(Nc3ccccc3)cc2)cc1
2230 | 531 | CCCCCc1ccc(C(=O)N(CCN(CCCC)CCCC)Cc2ccc(-c3cncnc3)cc2)cc1
1760 | 188 | CCCCCc1ccc(C(=O)N(CCN(CCCC)CCCC)Cc2ccc(N3CCSCC3)cc2)cc1
340 | 46 | CCCCCc1ccc(C(=O)N(CCN(CCCC)CCCC)Cc2ccc(-c3ccc(CC(=O)NCc4ccccc4)cc3)cc2)cc1
739 | 670 | CCCCCc1ccc(C(=O)N(CCN(CCCC)CCCC)Cc2ccc(-n3ccc4ccccc43)cc2)cc1
